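A five-concentration, 48-hour dose response in 96-well plates underlies each endpoint, interpolated linearly between surrounding concentrations. Abbreviation: GI50, concentration required for 50% inhibition of growth. TGI is the concentration that stops growth completely.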

Some test systems named below: MCF7 breast; MDA-MB-435; HS 578T breast; 786-0 renal; HT29 colon; RXF 393 renal; SK-OV-3 ovarian; PC-3 prostate; BT-549 breast; EKVX NSCLC.
What all share (assay): inhibition of tumour cell growth, NCI panel, 48 h

On to `Fc1ccc(Nc2ccnc(N3CCN(c4ccnc5cc(Cl)ccc45)CC3)n2)cc1`, for which the GI50 in the assay on MCF7 breast was 2.36 µM; with MDA-MB-435 it was 1.93 µM; in the assay on HS 578T breast, 2.83 µM; in the assay on 786-0 renal it was 2.28 µM; in the assay on HT29 colon it was 1.46 µM; in the assay on RXF 393 renal it was 3.39 µM. For the same molecule, the GI50 in the assay on SK-OV-3 ovarian is 5.02 µM; in the assay on PC-3 prostate, 1.73 µM; with BT-549 breast, 2.95 µM. The TGI was determined as 8.26 µM in the assay on MCF7 breast; 4.92 µM with MDA-MB-435; 39 µM in the assay on HS 578T breast; 6.26 µM in the assay on 786-0 renal; 3.14 µM in the assay with HT29 colon; 72.3 µM in the assay with RXF 393 renal. Further, the TGI in the assay with SK-OV-3 ovarian is more than 100 µM; with PC-3 prostate, 8.33 µM; in the assay on BT-549 breast, 8.57 µM.

Consider `Cc1cc(S(=O)(=O)Nc2nc3ccccc3s2)c(SCc2ccccc2)cc1Cl`, for which the GI50 in the assay with MCF7 breast is 31 µM; in the assay with MDA-MB-435, 15.7 µM; with HS 578T breast it was 20.2 µM; in the assay on 786-0 renal, 16.9 µM; with RXF 393 renal, 23.8 µM; in the assay with SK-OV-3 ovarian, 32.4 µM. Moreover, the figures for the GI50 with PC-3 prostate, with BT-549 breast and in the assay on EKVX NSCLC were 13.5 µM, 20.9 µM and 13.2 µM, respectively. Also, the TGI is more than 100 µM in the assay on MCF7 breast; 31.7 µM in the assay with MDA-MB-435; 62 µM in the assay with HS 578T breast; 32.1 µM in the assay with 786-0 renal; 49.7 µM in the assay with RXF 393 renal; 98.4 µM in the assay on SK-OV-3 ovarian. For the same molecule, the TGI is 28.8 µM in the assay with PC-3 prostate, 60.5 µM in the assay on BT-549 breast and 49.2 µM in the assay with EKVX NSCLC.

Take `OCC1OC(N2CCN(C3OC(CO)C(O)C(O)C3O)CC2)C(O)C(O)C1O` (stereo unspecified): the TGI with MCF7 breast, in the assay with MDA-MB-435, with HS 578T breast, in the assay on 786-0 renal, in the assay on HT29 colon and in the assay with RXF 393 renal was more than 100 µM each time. In addition, the TGI in the assay on SK-OV-3 ovarian, in the assay with PC-3 prostate, in the assay with BT-549 breast and in the assay with EKVX NSCLC was more than 100 µM throughout.

Consider `C[C@H]1O[C@@H](O[C@H]2[C@@H](O)C[C@H](O[C@H]3[C@@H](O)C[C@H](O[C@H]4CC[C@]5(C)C6CC[C@]7(C)[C@@H](C8=CC(=O)OC8)CC[C@]7(O)C6CC[C@@H]5C4)O[C@@H]3C)O[C@@H]2C)C[C@H](O)[C@@H]1O` (stereo partly specified), for which the GI50 is 0.0181 µM with MCF7 breast; 0.017 µM in the assay on MDA-MB-435; 0.013 µM in the assay on HS 578T breast; 0.0172 µM with 786-0 renal; 0.0193 µM in the assay on HT29 colon; 0.0142 µM with RXF 393 renal. In addition, the GI50 is 0.019 µM in the assay with SK-OV-3 ovarian, 0.0194 µM in the assay on PC-3 prostate, 0.0163 µM in the assay on BT-549 breast and 0.0141 µM with EKVX NSCLC. The TGI in the assay on MCF7 breast was found to be 0.11 µM; in the assay with MDA-MB-435 it was 0.0666 µM; with HS 578T breast it was 1.57 µM; in the assay with 786-0 renal, 0.0596 µM; in the assay with HT29 colon, 0.0653 µM; in the assay on RXF 393 renal, 0.0439 µM. Besides, the TGI was 0.067 µM with SK-OV-3 ovarian, 0.106 µM with PC-3 prostate, 0.0508 µM with BT-549 breast and 0.0383 µM in the assay on EKVX NSCLC.

As for `COc1cc(-c2cc(-c3ccc(Nc4nc(Nc5ccc(Cl)cc5)nc(Nc5ccc(Cl)cc5)n4)cc3)no2)cc(OC)c1OC`, the GI50 is 3 µM in the assay with MCF7 breast; 7.15 µM with MDA-MB-435; 1.71 µM in the assay with HS 578T breast; 3.6 µM in the assay on 786-0 renal; 16.9 µM in the assay with HT29 colon; 0.816 µM in the assay on RXF 393 renal. Also, the GI50 was more than 100 µM in the assay with SK-OV-3 ovarian, 0.565 µM in the assay on PC-3 prostate, 13.9 µM in the assay with BT-549 breast and 24.9 µM in the assay on EKVX NSCLC. For the same molecule, the TGI was 69.7 µM in the assay on MCF7 breast; more than 100 µM in the assay on MDA-MB-435; more than 100 µM in the assay with HS 578T breast; 20.1 µM in the assay with 786-0 renal; more than 100 µM with HT29 colon; 7.08 µM with RXF 393 renal. In addition, the TGI in the assay with SK-OV-3 ovarian is more than 100 µM; in the assay with PC-3 prostate, 9.19 µM; in the assay on BT-549 breast it was more than 100 µM; in the assay with EKVX NSCLC, more than 100 µM.

On to `CC(=O)Nc1ccc2c(c1)[nH]c(=O)c1cc(NC(C)=O)ccc12`, for which the GI50 in the assay with MCF7 breast, with MDA-MB-435, with HS 578T breast, in the assay with 786-0 renal, in the assay with HT29 colon and in the assay on RXF 393 renal was more than 100 µM in each case. Besides, the GI50 in the assay on SK-OV-3 ovarian, with PC-3 prostate, with BT-549 breast and in the assay on EKVX NSCLC was more than 100 µM throughout. In addition, the TGI with MCF7 breast, in the assay with MDA-MB-435, in the assay with HS 578T breast, in the assay with 786-0 renal, with HT29 colon and with RXF 393 renal was more than 100 µM in each case. In addition, the TGI in the assay with SK-OV-3 ovarian, in the assay with PC-3 prostate, with BT-549 breast and in the assay with EKVX NSCLC was more than 100 µM throughout.

For `O=C(Nc1n[nH]c2cc(-c3ccc(F)cc3)ccc12)C1CC1`, the GI50 is 5.54 µM in the assay with MCF7 breast; 2.31 µM with MDA-MB-435; 10.7 µM in the assay with HS 578T breast; 17.7 µM in the assay with 786-0 renal; 7.9 µM with HT29 colon; 5.73 µM in the assay on RXF 393 renal. Moreover, the GI50 in the assay on SK-OV-3 ovarian is 6.24 µM; in the assay on PC-3 prostate, 7.98 µM; with BT-549 breast, 12.4 µM; in the assay with EKVX NSCLC, 12.2 µM. Also, the TGI is more than 22.2 µM in the assay on MCF7 breast; 12.1 µM in the assay on MDA-MB-435; more than 25 µM with HS 578T breast; more than 25 µM with 786-0 renal; more than 25 µM in the assay with HT29 colon; more than 22.6 µM in the assay with RXF 393 renal. Besides, the TGI is 20.3 µM in the assay on SK-OV-3 ovarian, more than 25 µM with PC-3 prostate, more than 25 µM in the assay with BT-549 breast and more than 25 µM in the assay on EKVX NSCLC.

For `CC1(/C=C/c2ccc(-c3ccccc3)cc2)CCn2cnc3ncnc(c32)N1O` (stereo unspecified), the GI50 in the assay on MCF7 breast was 0.342 µM; in the assay with MDA-MB-435, 0.646 µM; in the assay with HS 578T breast it was 3.37 µM; in the assay with 786-0 renal, 0.259 µM; in the assay with HT29 colon, 0.526 µM; in the assay with RXF 393 renal, 0.88 µM. Moreover, the GI50 in the assay with SK-OV-3 ovarian is 0.434 µM; in the assay on PC-3 prostate it was 0.57 µM; in the assay with BT-549 breast, 0.495 µM; in the assay with EKVX NSCLC, 0.305 µM. For the same molecule, the TGI in the assay with MCF7 breast is more than 69.4 µM; with MDA-MB-435 it was 39.6 µM; with HS 578T breast, 30.9 µM; with 786-0 renal, 4.49 µM; in the assay with HT29 colon it was 41.7 µM; in the assay on RXF 393 renal, 40.3 µM. The TGI was 20.4 µM in the assay on SK-OV-3 ovarian, 34.8 µM in the assay on PC-3 prostate, 16.9 µM in the assay on BT-549 breast and more than 100 µM in the assay on EKVX NSCLC.

The values above are taken from PubChem BioAssay (NCI).
